The record followed here is patent publication US5708033A, “Amide derivatives and their therapeutic use” (Glaxo Wellcome Inc., priority 1994, dated 1998).

By ED50 is commonly meant the dose at which the effect has come halfway, by size or by number of responders.

Like-named read-outs stand apart in the source and are kept apart here.

Assay type in all cases: in vivo, rat (Lewis male)
For test [1], the system named is rat pleura (carrageenan-induced cell accumulation and edema formation). Description: modification of the standard carrageenan pleurisy assay (anti-inflammatory activity). Conditions: po, p.o. gavage to fasted rats 0.5 hr prior to intrapleural 50 μg carrageenan, exudate after 4 hr. The procedure:
The rats used in these experiments were Lewis males, weighing 160-180 g, assigned to groups consisting of 5 animals. Test compounds were given to fasted rats by oral gavage 0.5 hr prior to intrapleural injection of 50 μg carrageenan. After 4 hr, the pleural exudate was collected and the edema volume and cell number were determined. ED50 values were estimated by linear regression analysis, and represent the doses at which a given drug produced 50% inhibition of carrageenan-induced cell accumulation and edema formation within the rat pleura.

The test system of test [2] is phalanges of one hind limb (algesic response). The experiment in a line: phalanges algesic assay (strong analgesia). The note with it: p.o. gavage to fasted rats, mechanical force clamp one hour later, 3 seconds maximum; for ED50: Rattus norvegicus, po, 1 h, read-out: p.o. ED50 (strong analgesia, 50% inhibition of latency response). The procedure:
The rats used in these studies were Lewis male weighing 160-180 g and assigned to groups of 5-6 animals. The phalanges algesic assay is an algesic test (no hyperalgesia). Test compounds were given to fasted rats by oral gavage. One hour later an F-shaped mechanical force clamp was applied to the phalanges of one hind limb which initiated an algesic response (vocalisation or flight). Latency (seconds) to the algesic response was determined with 3 seconds maximum allowed time. ED50 values were estimated by linear regression analysis and represent the dose at which a given compound extended the latency response to produce 50% inhibition using the formula:
(3 sec.-Control Latency)-(3 sec.-Test Latency)/3 sec.-Control

Test [3] has as its system rat hind limb (trypsin-induced hyperalgesia). Description: modification of the trypsin-induced rat hind limb hyperalgesic assay (mild analgesia). The note with it: po, 1 h, p.o. gavage to fasted rats 0.5 hours prior to subplantar 250 μg trypsin, evaluated one hour later, 4 seconds maximum latency, read-out: p.o. ED50 (mild analgesia, 50% inhibition of latency response). The procedure:
The rats used in these studies were Lewis male, weighing 160-180 g. and assigned to groups consisting of 5-6 animals. Test compounds were given to fasted rats by oral gavage 0.5 hours prior to the subplantar injection of 250 μg trypsin in one hind limb. One hour later the rats were evaluated for hyperalgesia using a F-shaped mechanical force clamp on the injected hind limb metatarsal area. Latency (seconds) to the algesic response (vocalisation or flight) was determined, with 4 seconds being the maximum latency allowed. ED50 values were estimated by linear regression analysis and represent the dose at which a given drug extended the latency response to produce 50% inhibition using the formula:
(4 sec.-Control Latency)-(4 sec.-Test Latency)/4 sec.--Control

Where [4] appears, read: read-out: p.o. ED50, Cells (50% inhibition of carrageenan-induced cell accumulation).
[5] abbreviates: read-out: p.o. ED50, Edema (50% inhibition of edema formation).

With `CNC(=O)/C=C1\CCc2c(Cl)cc(F)cc21` [Example 1, (E)-2-(4-Chloro-6-fluoro-1-indanylidene)-N-Methylacetamide], the median effective dose (ED50) is 8 mg/kg in test [1] (setting [4]), 5 mg/kg in test [1] (setting [5]), 60 mg/kg in test [2] and 2 mg/kg in test [3].
`NC(=O)/C=C1\CCc2c(Cl)cc(F)cc21` [Example 2, (E)-2-(4-Chloro-6-fluoro-1-indanylidene)acetamide]: the median effective dose (ED50) in test [1] (setting [4]) stood at 11 mg/kg; in test [1] (setting [5]) it was 11 mg/kg; in test [2] it was 30 mg/kg; in test [3], 4 mg/kg.
For the molecule `NC(=O)/C=C1\CCc2c(Cl)cc(Cl)cc21` [Example 3, (E)-2-(4,6-Dichloro-1-indanylidene)acetamide], the ED50 in test [1] (setting [4]) is 25 mg/kg; in test [1] (setting [5]) it was 20 mg/kg; in test [2] it was above 45 mg/kg; in test [3], 4 mg/kg.
In the case of `NC(=O)/C=C1\CCc2c(F)cc(Cl)cc21` [Example 6, (E)-2-(6-Chloro-4-Fluoro-1-indanylidene)acetamide], the ED50 in test [1] (setting [4]) was above 25 mg/kg; in test [1] (setting [5]) it was above 25 mg/kg; in test [2], above 45 mg/kg; in test [3] it was above 10 mg/kg.
For `NC(=O)/C=C1\CCc2c(Br)cc(F)cc21` [Example 7, (E)-2-(4-Bromo-6-Fluoro-1-indanylidene)acetamide], the median effective dose (ED50) was above 20 mg/kg in test [1] (setting [4]), above 20 mg/kg in test [1] (setting [5]) and above 45 mg/kg in test [2].
For `Cc1cc(Cl)c2c(c1)/C(=C/C(N)=O)CC2` [Example 8, (E)-2-(4-Chloro-6-methyl-1-indanylidene)acetamide], the ED50 in test [1] (setting [4]) and in test [1] (setting [5]) was above 25 mg/kg in each case. Also, the “p.o. ED50 (strong analgesia, 50% inhibition of latency response)” value in test [2] is given as “Inactive at 45”.
